Consider one molecule from ChEMBL document CHEMBL6109079, “Discovery of novel pyrimidinetrione derivatives as DprE1 inhibitors with potent antimycobacterial activities” (Eur J Med Chem, 2025).

Each structure is given as a SMILES string.

Assay [1] can be described thus: Binding affinity to recombinant DprE1 (unknown origin) assessed as dissociation constant incubated for 10 mins by MST analysis. Also on record: species or system Bacteria.
In assay [2] the target is T1, Decaprenylphosphoryl-beta-D-ribose oxidase (Mycobacterium smegmatis (strain ATCC 700084 / mc(2)155), UniProt A0R607).
T1 sequence (A0R607 whole entry): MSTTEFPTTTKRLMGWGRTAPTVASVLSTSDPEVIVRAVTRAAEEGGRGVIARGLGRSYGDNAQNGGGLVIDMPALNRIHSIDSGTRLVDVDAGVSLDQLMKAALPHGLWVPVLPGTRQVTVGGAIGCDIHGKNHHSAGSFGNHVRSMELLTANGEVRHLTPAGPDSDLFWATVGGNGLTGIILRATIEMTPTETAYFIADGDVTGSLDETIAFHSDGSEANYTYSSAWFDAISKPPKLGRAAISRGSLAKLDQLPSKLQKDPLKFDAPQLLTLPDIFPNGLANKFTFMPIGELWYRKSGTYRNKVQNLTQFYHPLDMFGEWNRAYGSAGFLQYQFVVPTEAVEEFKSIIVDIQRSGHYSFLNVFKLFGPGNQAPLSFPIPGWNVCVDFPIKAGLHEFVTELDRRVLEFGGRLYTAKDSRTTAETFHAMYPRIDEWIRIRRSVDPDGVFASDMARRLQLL
The assay can be described thus: Binding affinity to full length N-terminal 6his-tagged Mycobacterium smegmatis ATCC 607 DprE1 extracted from Escherichia coli BL21 assessed as dissociation constant incubated for 10 mins. Also on record: species or system Mycolicibacterium smegmatis.

Assay [3] can be described thus: Inhibition of DprE1 (unknown origin) preincubated with FAD followed by compound addition and measured after 2 mins by fluorescence based microplate reader. Details: species or system Bacteria.

With `C=CCN1C(=O)NC(=O)/C(=C\NNC(=O)c2ccncc2)C1=O`, the values for the Kd in assay [1] and in assay [2] were 0.025 µM and 0.0025 µM, respectively. Also, the IC50 in assay [3] turned out to be 54.6 µM.
